Legend:
[1] = system: protein tau phosphorylation at AD-2 epitope; test: Western blot of tau phosphorylation at AD-2 epitope after two-week administration (Example 2); format: in vivo; conditions: THY-Tau22 mice
Protocol: For immunoblot analysis, frozen mouse tissues (either hippocampus or cortex) were homogenized using a Precellys 24 tissue homogenizer in 350 μl RIPA buffer from Cell Signaling (20 mM Tris-HCl (pH 7.5), 150 mM NaCl, 1 mM Na2 EDTA, 1 mM EGTA, 1% NP-40, 1% sodium deoxycholate, 2.5 mM sodium pyrophosphate, 1 mM beta-glycerophosphate, 1 mM Na3VO4, 1 μg/ml leupeptin) to which proteases inhibitors (Sigma cocktail 1% v/v) and phosphatases inhibitors (okadaic acid 1 μM, sodium fluoride 100 mM) were added. After centrifugation, 16000×g 4° C. for 10 minutes, protein content in supernatants was determined with BioRad DC Protein Assay kit, using BSA as a standard. […] Tau protein was detected using the following mouse antibody: AD-2 1/20.000^e (Biorad, 56484) which recognizes tau protein phosphorylated on Ser396 and Ser404. […]
Following incubation with primary antibodies, blots were rinsed in TBS Tween 0.1% and incubated for 1 hour at room temperature in an anti-mouse IgG horseradish peroxidase (HRP)-linked secondary antibody 1/10,000^e (GE healthcare, NA9310) diluted in 5% non-fat dry milk in TBS Tween 0.1%. […] Quantification of immunoreactive signal was performed using Multigauge V3.0 software (FUJIFILM). […]

[2] = system: protein tau hyperphosphorylation on AT-8 (pSer199-202/Thr205) epitope; test: AT8 immunohistochemistry with quantitative image analysis after six months in food; format: in vivo, THY-Tau22 mice; conditions: for protein tau phosphorylation on AT-8 epitope in cortex, vs vehicle: n=9; for decrease of the number of AT8-positive neuronal cells, cortex: significant
Text: 2-(Cyclohexylmethyl)-N-{2-[(2S)-1-methylpyrrolidin-2-yl]ethyl}-1,2,3,4-tetrahydroisoquinoline-7-sulfonamide difumarate monohydrate was administrated as a supplement in food at doses of 0.00034%, 0.0034% and 0.034% for six months in THY-Tau22 and wild type mice as follows: • Tg Veh (n=17) • Tg Active Ingredient—0.034% (n=17) • Tg Active Ingredient—0.0034% (n=17) • Tg Active Ingredient—0.00034% (n=17) • WT Veh (n=17) • WT Active Ingredient—0.034% (n=17) • WT Active Ingredient—0.0034% (n=17) • WT Active Ingredient—0.00034% (n=17) • WT groups treated with Active Ingredient are not used in the biochemical and histological studies.
After mice were decapitated, brains were removed and one hemibrain (used for histopathological studies) was immersion-postfixed for seven days at 4° C. with 4% formaldehyde (Carlo Erba/code 415691). The other hemibrain was prepared for biochemical quantitative measurements.
Post-fixed hemibrains were incubated in phosphate-buffered saline (PBS, P 3813-10PAK, Sigma), transferred to a 20% sucrose solution (code 27480.294—Prolabo) for 48 hours at 4° C. to ensure good cryopreservation of tissues during subsequent freezing. For freezing, hemibrains were immersed for one minute in isopentane solution (Ref. No. 24872-323—Prolabo) cooled with dry ice to between −25° C. and −30° C. and then stored at −25° C.
The entire hemibrains were cut with a cryostat (Microm, HM560). Serial sagittal brain tissue sections were collected onto Superfrost plus microscope glass slides (VWR) and then stored at −20° C. (sections of 20 μm of thickness), or placed in PBS-sodium azide 0.1% (S-2002, Sigma) containing wells to avoid any contamination and stored at 4° C. (sections of 30 μm of thickness).
Hyperphosphorylated microtubule-associated protein tau is the major component of the paired helical filament. Phosphorylation-dependent anti-tau antibodies can be used to identify specific amino acids that are phosphorylated in tau from normal brain and AD brain. For example, the monoclonal antibody, AT8, is widely used. Antibody that can detect the phosphorylated serine 202 and the phosphorylated threonine 205 epitopes of phosphorylated tau (AT8 epitope (M. Goedert et al., Neuroscience Letters, (1995) 189, 3, pp. 167-169)).
An immunohistochemical protocol using the AT8 antibody and based upon the avidin-biotin horseradish peroxidase method was applied on 30 μm free-floating sections. The detailed protocol is as follows:
The following reagents are used: 0.1M PBS buffer in 1 liter of H2O (2.23 g of NaH2PO4, 2H2O (Prolabo Ref. No. 33 616.262), 29 g of Na2HPO4, 12 H2O (Prolabo Ref. No. 28 028.298), 9 g of NaCl (Prolabo Ref. No. 27 810.295)); PBS-Triton (0.15%) buffer Triton×100 (Sigma Ref. No. 23 479-9) (PBS-T) (1 l of 0.1M PBS buffer, 1.5 ml of Triton); 0.2M PBS buffer in 1 liter of H2O (4.46 g of NaH2PO4, 2H2O, 58 g of Na2HPO4, 12H2O, 18 g of NaCl); 30% H2O2 (Sigma Ref. No. H 1009); 3,3′-diaminobenzidine tetrahydrochloride (Sigma Ref. No. D9015, 100 mg stored at −20° C.); Vectastain® ABC Kit (Ref. No. PK 4000, Vector); BSA: bovine serum albumin (Sigma Ref. No. A8022).
Sections were preincubated for 3×10 minutes in 0.1 M-PBS-0.15% triton solution and then in 0.1M-PBS-1.5% hydrogen peroxide-50% methanol at room temperature for 30 minutes. After 3 washings in 0.1 M-PBS-0.15% triton, they were further incubated in blocking buffer [i.e., in BSA diluted at 10% in 0.01 M PBS] for 30 minutes. They were incubated at room temperature overnight with mouse anti-human PHF-Tau monoclonal antibody (clone AT8, Thermo Science, MN1020, dilution 1/500 in 0.1M PBS-0.05% Triton) and then with the secondary antibody (anti-mouse IgG biotinylated whole antibody from goat, Amersham, RPN1177, dilution 1/500 in 0.1M PBS-0.05% Triton) for 1 h 30. They were finally incubated in peroxidase-coupled avidin complex (Vectastain ABC kit, Vector Laboratories, dilution 1/400 in 0.1M PBS) for 30 minutes. […]

SMILES: CN1CCC[C@H]1CCNS(=O)(=O)c1ccc2c(c1)CN(CC1CCCCC1)CC2 [2-(cyclohexylmethyl)-N-{2-[(2S)-1-methylpyrrolidin-2-yl]ethyl}-1,2,3,4-tetrahydroisoquinoline-7-sulfonamide difumarate monohydrate]
- effect on protein tau phosphorylation at AD-2 epitope in the hippocampus ([1]; 0.002% in drinking water): did not elicit any effect
- effect on protein tau phosphorylation at AD-2 epitope in the hippocampus ([1]; 0.02% in drinking water): did not elicit any effect
- protein tau phosphorylation on AT-8 epitope in cortex, vs vehicle ([2]; 0.0034% in food, six months): statistical significant decrease
- intensity of AT8-immunostaining within neuronal cell bodies and fibers, cortex ([2]; 0.0034% in food, six months, qualitatively observed): decrease
- decrease of the number of AT8-positive neuronal cells, cortex ([2]; 0.0034% in food, six months): −47%
- protein tau phosphorylation on AT-8 epitope in cortex, vs vehicle ([2]; 0.034% in food, six months): statistical significant decrease
- decrease of the number of AT8-positive neuronal cells, cortex ([2]; 0.034% in food, six months): −32%
- AT8-positive neuronal cell number in other ROIs (amygdala, CA1 and dentate gyrus hippocampal subareas) ([2]; six months in food): No significant decrease
